Measured values taken from article PMC10331583, “Control of fibrosis with enhanced safety via asymmetric inhibition of prolyl‐tRNA synthetase 1” (EMBO Molecular Medicine, 2023).
Values joined by “and” are separate entries in the source; they are usually repeats but may differ in a detail not shown here. Equal values may be shown once. Read-outs that look alike come from different tables or passages of the source.

Columns and labels:
WI‐26 VA4 cells [1] = experiment: Puromycin incorporation assay; type: cell-based, human; settings: for activity at 0.1 µM: WI26VA4, 100 nM; for activity at 0.3 µM: WI26VA4, 300 nM; for activity at 1 µM: WI26VA4, 1000 nM; for activity at 3 µM: WI26VA4, 3000 nM; for activity at 5 µM: WI26VA4, 5000 nM; for activity at 10 µM: WI26VA4, 10000 nM
Description: After being rinsed with cold PBS twice, the cells were collected and resuspended in 200 μl of the carbonate bicarbonate buffer (Sigma Aldrich, C3041‐50CAP) with protease inhibitor. The cell lysates were obtained by sonication and centrifugation at 20,000 g for 15 min at 4°C. After protein quantification using a Pierce™ BCA Protein Assay Kit (Thermo Fisher Scientific, 23225), 400 ng of the proteins was coated to ELISA plates for 18 h at 4°C. […] The plates were rinsed with the washing buffer for three times after each antibody incubation step. […] The amount of puromycin incorporated in proteins was determined by measuring the absorbance at 450 nm (reference wavelength at 620 nm). Experimental values marked in red with strikethrough text in the Figure Source Data file were excluded from the analysis. These values were determined by considering the values of biological and technical replicates under the same condition, as well as the values at the former and later chemical concentrations.

WI‐26 VA4 cells [2] = experiment: CellTiter‐Glo assay (cytotoxicity); settings: for activity at 0.003 µM / activity at 0.01 µM / activity at 0.03 µM / activity at 0.1 µM / activity at 0.3 µM / activity at 1 µM / activity at 3 µM / activity at 10 µM / activity at 30 µM / activity at 100 µM: Homo sapiens
Description: (§1) After 24 h, the cells were incubated with various concentrations of compounds for 48 h. The level of ATP as a measure of cell viability was determined using a CellTiter‐Glo® luminescent cell viability assay kit (Promega, G7571) following the manufacturer's instructions.
(§2) WI‐26 VA4 cells were seeded at 1.2 × 10^4 cells/well in 96‐well white plates. After 24 h, the cells were incubated with the indicated concentrations of compounds for 72 h. The viability was determined as described above.

[3] = CellTiter‐Glo assay (cytotoxicity); settings: human, WI-26 VA4 cells
Description: as §1, §2

[4] = Homo sapiens, read-out: Puromycin, % of control, average
[5] = Homo sapiens, read-out: Puromycin, % of control, single replicate
[6] = log(inhibitor) vs. response, variable slope (four parameters), concentration in nM

SMILES: Cc1c(Cl)ccc2c1ncn2CC(=O)C[C@H]1NCCC[C@@H]1O [DWN11748]
- Puromycin, % of control, single replicate (WI‐26 VA4 cells [1]; 10000 nM, 10 µM): 12.21 % of control and 11.47 % of control and 15.58 % of control and 13.74 % of control and 13.61 % of control and 15.33 % of control and 15.25 % of control and 13.38 % of control
- Puromycin, % of control, single replicate (WI‐26 VA4 cells [1]; 100000 nM, 100 µM): 0.86 % of control and 1.09 % of control and 0.96 % of control and 0.69 % of control and 0.0546 % of control and 1.21 % of control and 1.52 % of control and 1.41 % of control and 1.00 % of control
- activity at 0.1 µM (WI‐26 VA4 cells [1]; [4]): 106%
- activity at 0.1 µM (WI‐26 VA4 cells [1]; [5]): 113%
- activity at 0.3 µM (WI‐26 VA4 cells [1]; [4]): 102%
- activity at 0.3 µM (WI‐26 VA4 cells [1]; [5]): 102%
- activity at 1 µM (WI‐26 VA4 cells [1]; [4]): 103%
- activity at 1 µM (WI‐26 VA4 cells [1]; [5]): 101%
- activity at 3 µM (WI‐26 VA4 cells [1]; [4]): 31.2%
- activity at 3 µM (WI‐26 VA4 cells [1]; [5]): 29.7%
- activity at 5 µM (WI‐26 VA4 cells [1]; [4]): 24.6%
- activity at 5 µM (WI‐26 VA4 cells [1]; [5]): 23.1%
- activity at 10 µM (WI‐26 VA4 cells [1]; [4]): 13.7%
- activity at 10 µM (WI‐26 VA4 cells [1]; [5]): 12.4%
- activity at 30 µM (WI‐26 VA4 cells [1]; Homo sapiens, WI26VA4, 30000 nM, read-out: Puromycin, % of control, average): 1.05%
- activity at 100 µM (WI‐26 VA4 cells [1]; Homo sapiens, WI26VA4, 100000 nM, read-out: Puromycin, % of control, average): 0.98%
- IC50 (WI‐26 VA4 cells [1]; Homo sapiens, WI26VA4, log(inhibitor) vs. response, variable slope (four parameters), read-out: Puromycin, IC50 (best-fit value)): 2680 nM
- Puromycin, HillSlope (best-fit value) (WI‐26 VA4 cells [1]; log(inhibitor) vs. response, variable slope (four parameters)): -2.365
- Puromycin, LogIC50 (best-fit value) (WI‐26 VA4 cells [1]; [6]): 3.428
- activity at 0.003 µM (WI‐26 VA4 cells [2]; WI26VA4, read-out: CellTiter-Glo % of control, 3 nM, Experiment #1, replicates): 99.9%
- activity at 0.003 µM (WI‐26 VA4 cells [2]; WI26VA4, read-out: CellTiter-Glo % of control, 3 nM, Experiment #2, replicates): 90.9%
- activity at 0.01 µM (WI‐26 VA4 cells [2]; WI26VA4, read-out: CellTiter-Glo % of control, 10 nM, Experiment #1, replicates): 90.9%
- activity at 0.01 µM (WI‐26 VA4 cells [2]; WI26VA4, read-out: CellTiter-Glo % of control, 10 nM, Experiment #2, replicates): 98.9%
- activity at 0.03 µM (WI‐26 VA4 cells [2]; WI26VA4, read-out: CellTiter-Glo % of control, 30 nM, Experiment #1, replicates): 91.9%
- activity at 0.03 µM (WI‐26 VA4 cells [2]; WI26VA4, read-out: CellTiter-Glo % of control, 30 nM, Experiment #2, replicates): 83.2%
- activity at 0.1 µM (WI‐26 VA4 cells [2]; WI26VA4, read-out: CellTiter-Glo % of control, 100 nM, Experiment #1, replicates): 103%
- activity at 0.1 µM (WI‐26 VA4 cells [2]; WI26VA4, read-out: CellTiter-Glo % of control, 100 nM, Experiment #2, replicates): 86%
- activity at 0.3 µM (WI‐26 VA4 cells [2]; WI26VA4, read-out: CellTiter-Glo % of control, 300 nM, Experiment #1, replicates): 83.6%
- activity at 0.3 µM (WI‐26 VA4 cells [2]; WI26VA4, read-out: CellTiter-Glo % of control, 300 nM, Experiment #2, replicates): 68.5%
- activity at 1 µM (WI‐26 VA4 cells [2]; WI26VA4, read-out: CellTiter-Glo % of control, 1000 nM, Experiment #1, replicates): 70.6%
- activity at 1 µM (WI‐26 VA4 cells [2]; WI26VA4, read-out: CellTiter-Glo % of control, 1000 nM, Experiment #2, replicates): 67.6%
- activity at 3 µM (WI‐26 VA4 cells [2]; WI26VA4, read-out: CellTiter-Glo % of control, 3000 nM, Experiment #1, replicates): 29.5%
- activity at 3 µM (WI‐26 VA4 cells [2]; WI26VA4, read-out: CellTiter-Glo % of control, 3000 nM, Experiment #2, replicates): 29.4%
- activity at 10 µM (WI‐26 VA4 cells [2]; WI26VA4, read-out: CellTiter-Glo % of control, 10000 nM, Experiment #1, replicates): 30.3%
- activity at 10 µM (WI‐26 VA4 cells [2]; WI26VA4, read-out: CellTiter-Glo % of control, 10000 nM, Experiment #2, replicates): 20.9%
- activity at 30 µM (WI‐26 VA4 cells [2]; WI26VA4, read-out: CellTiter-Glo % of control, 30000 nM, Experiment #1, replicates): 18.8%
- activity at 30 µM (WI‐26 VA4 cells [2]; WI26VA4, read-out: CellTiter-Glo % of control, 30000 nM, Experiment #2, replicates): 10.1%
- activity at 100 µM (WI‐26 VA4 cells [2]; WI26VA4, read-out: CellTiter-Glo % of control, 100000 nM, Experiment #1, replicates): 0.73%
- activity at 100 µM (WI‐26 VA4 cells [2]; WI26VA4, read-out: CellTiter-Glo % of control, 100000 nM, Experiment #2, replicates): 0.58%
- activity at 0.003 µM (WI‐26 VA4 cells [2]; WI26VA4, read-out: CellTiter-Glo % of control, average, 3 nM, average): 102%
- activity at 0.01 µM (WI‐26 VA4 cells [2]; WI26VA4, read-out: CellTiter-Glo % of control, average, 10 nM, average): 96.5%
- activity at 0.03 µM (WI‐26 VA4 cells [2]; WI26VA4, read-out: CellTiter-Glo % of control, average, 30 nM, average): 91.9%
- activity at 0.1 µM (WI‐26 VA4 cells [2]; WI26VA4, read-out: CellTiter-Glo % of control, average, 100 nM, average): 94.6%
- activity at 0.3 µM (WI‐26 VA4 cells [2]; WI26VA4, read-out: CellTiter-Glo % of control, average, 300 nM, average): 75.5%
- activity at 1 µM (WI‐26 VA4 cells [2]; WI26VA4, read-out: CellTiter-Glo % of control, average, 1000 nM, average): 63.5%
- activity at 3 µM (WI‐26 VA4 cells [2]; WI26VA4, read-out: CellTiter-Glo % of control, average, 3000 nM, average): 27.5%
- activity at 10 µM (WI‐26 VA4 cells [2]; WI26VA4, read-out: CellTiter-Glo % of control, average, 10000 nM, average): 25.4%
- activity at 30 µM (WI‐26 VA4 cells [2]; WI26VA4, read-out: CellTiter-Glo % of control, average, 30000 nM, average): 13.7%
- activity at 100 µM (WI‐26 VA4 cells [2]; WI26VA4, read-out: CellTiter-Glo % of control, average, 100000 nM, average): 0.5%
- CellTiter-Glo LogIC50 (best-fit value) (WI‐26 VA4 cells [2]; [6]): 3.159
- CC50 at 72 h [3]: 1440 nM
